Paper PMC8698302, “An Antibacterial Peptide with High Resistance to Trypsin Obtained by Substituting D-Amino Acids for Trypsin Cleavage Sites” (Antibiotics, 2021)
≈ marks a conversion by molar mass, not a printed value. Where two headings read alike, the source gives them in different places.

Tests used:
Test in all cases: Antimicrobial susceptibility test of clinical isolated strains
Format in all cases: cell-based
Escherichia coli w124 = settings: for Antimicrobial susceptibility test result (category): according to CLSI 2015 guidelines
From the text: (§1) Table S1. Antimicrobial susceptibility test of clinical isolated strains used in this study (MIC, μg/mL).
(§2) "I" stands for intermediate, "S" stands for susceptible. […]

Escherichia coli w136 = settings: for Antimicrobial susceptibility test result (category): according to CLSI 2015 guidelines
From the text: as §1, §2

Escherichia coli QY = settings: for Antimicrobial susceptibility test result (category): according to CLSI 2015 guidelines
Procedure: as §1
(§3) 1Antimicrobial susceptibility test results were determined according to CLSI 2015 guidelines, where "R" stands for drug resistance,
as §2

Escherichia coli S1N1 = settings: for Antimicrobial susceptibility test result (category): according to CLSI 2015 guidelines
Procedure: as §1, §3, §2

Shigella flexneri QY1 = settings: for Antimicrobial susceptibility test result (category): according to CLSI 2015 guidelines
Procedure: as §1, §3, §2

Escherichia coli SN5 = settings: for Antimicrobial susceptibility test result (category): according to CLSI 2015 guidelines
Procedure: as §1, §3, §2

Escherichia coli w122 = settings: for Antimicrobial susceptibility test result (category): according to CLSI 2015 guidelines
Procedure: as §1, §3, §2

Escherichia coli w123 = settings: for Antimicrobial susceptibility test result (category): according to CLSI 2015 guidelines
Procedure: as §1, §3, §2

[1] = system: Methicillin-resistant Staphylococcus aureus HP; settings: for MIC: Staphylococcus aureus, antibiotic susceptibility, CLSI 2015 guidelines; for Antimicrobial susceptibility test result (category): according to CLSI 2015 guidelines
Procedure: as §1, §3, §2

[2] = Escherichia coli, W124, antibiotic susceptibility, CLSI 2015 guidelines, read-out: MIC
[3] = Escherichia coli, W136, antibiotic susceptibility, CLSI 2015 guidelines, read-out: MIC
[4] = Escherichia coli, antibiotic susceptibility, CLSI 2015 guidelines, read-out: MIC
[5] = Escherichia coli, S1N1, antibiotic susceptibility, CLSI 2015 guidelines, read-out: MIC
[6] = Escherichia coli, SN5, antibiotic susceptibility, CLSI 2015 guidelines, read-out: MIC
[7] = Escherichia coli, W122, antibiotic susceptibility, CLSI 2015 guidelines, read-out: MIC
[8] = Escherichia coli, W123, antibiotic susceptibility, CLSI 2015 guidelines, read-out: MIC
[9] = antibiotic susceptibility, CLSI 2015 guidelines

Molecule	MIC (Escherichia coli w124; [2]) [µg/mL]	Antimicrobial susceptibility test result (category) (Escherichia coli w124)	MIC (Escherichia coli w136; [3]) [µg/mL]	Antimicrobial susceptibility test result (category) (Escherichia coli w136)	MIC (Escherichia coli QY; [4]) [µg/mL]	Antimicrobial susceptibility test result (category) (Escherichia coli QY)	MIC (Escherichia coli S1N1; [5]) [µg/mL]	Antimicrobial susceptibility test result (category) (Escherichia coli S1N1)	MIC (Shigella flexneri QY1; Shigella flexneri, QY1) [µg/mL]	Antimicrobial susceptibility test result (category) (Shigella flexneri QY1)	MIC (Escherichia coli SN5; [6]) [µg/mL]	Antimicrobial susceptibility test result (category) (Escherichia coli SN5)	MIC (Escherichia coli w122; [7]) [µg/mL]	Antimicrobial susceptibility test result (category) (Escherichia coli w122)	MIC (Escherichia coli w123; [8]) [µg/mL]	Antimicrobial susceptibility test result (category) (Escherichia coli w123)	MIC [1] [µg/mL]	Antimicrobial susceptibility test result (category) [1]	further results
CC[C@H]1OC(=O)[C@H](C)[C@@H](O[C@H]2C[C@@](C)(OC)[C@@H](O)[C@H](C)O2)[C@H](C)[C@@H](O[C@@H]2O[C@H](C)C[C@H](N(C)C)[C@H]2O)[C@](C)(O)C[C@@H](C)CN(C)[C@H](C)[C@@H](O)[C@]1(C)O [Azithromycin]	4 (≈ 5.34 µM)	S	2 (≈ 2.67 µM)	S	8 (≈ 10.7 µM)	S	4 (≈ 5.34 µM)	S	64 (≈ 85.4 µM)	R	4 (≈ 5.34 µM)	S	4 (≈ 5.34 µM)	S	4 (≈ 5.34 µM)	S	1 (≈ 1.34 µM)	S	
CO/N=C(\C(=O)N[C@@H]1C(=O)N2C(C(=O)O)=C(CSc3nc(=O)c(=O)[nH]n3C)CS[C@H]12)c1csc(N)n1 [Ceftriaxone]	4 (≈ 7.21 µM)	R	0.06 (≈ 0.108 µM)	S	64 (≈ 115 µM)	R	16 (≈ 28.9 µM)	R	4 (≈ 7.21 µM)	R	16 (≈ 28.9 µM)	R	32 (≈ 57.7 µM)	R	32 (≈ 57.7 µM)	R			
CS(=O)(=O)c1ccc([C@@H](O)[C@@H](CF)NC(=O)C(Cl)Cl)cc1 [Florfenicol]	128 (≈ 357 µM)	R	128 (≈ 357 µM)	R	128 (≈ 357 µM)	R	2 (≈ 5.58 µM)	S	2 (≈ 5.58 µM)	S	4 (≈ 11.2 µM)	S	128 (≈ 357 µM)	R	128 (≈ 357 µM)	R			
CNC(C)C1CCC(N)C(OC2C(N)CC(N)C(OC3OCC(C)(O)C(NC)C3O)C2O)O1 (stereo not shown) [Gentamicin]	8 (≈ 16.8 µM)	I	8 (≈ 16.8 µM)	I	> 512	R	< 0.03	S	1 (≈ 2.09 µM)	S	< 0.03	S	1 (≈ 2.09 µM)	S	1 (≈ 2.09 µM)	S	16 (≈ 33.5 µM)	R	
CO[C@H]1/C=C/O[C@@]2(C)Oc3c(C)c(O)c4c(O)c(c(/C=N/N5CCN(C)CC5)c(O)c4c3C2=O)NC(=O)/C(C)=C\C=C\[C@H](C)[C@H](O)[C@@H](C)[C@@H](O)[C@@H](C)[C@H](OC(C)=O)[C@@H]1C [Rifampicin]	4 (≈ 4.86 µM)	S	64 (≈ 77.8 µM)	R	4 (≈ 4.86 µM)	S	2 (≈ 2.43 µM)	S	2 (≈ 2.43 µM)	S	1 (≈ 1.22 µM)	S	4 (≈ 4.86 µM)	S	4 (≈ 4.86 µM)	S	8 (≈ 9.72 µM)	R	
Cc1noc(NS(=O)(=O)c2ccc(N)cc2)c1C [Sulfafurazole]		R		R		R		R	> 512	R		R		R		R			MIC (Escherichia coli w124; Escherichia coli, W124): 512 µg/mL (≈ 1920 µM); MIC (Escherichia coli w136; Escherichia coli, W136): 512 µg/mL (≈ 1920 µM); MIC (Escherichia coli QY; Escherichia coli): 512 µg/mL (≈ 1920 µM); MIC (Escherichia coli S1N1; Escherichia coli, S1N1): 512 µg/mL (≈ 1920 µM); MIC (Escherichia coli SN5; Escherichia coli, SN5): > 512 µg/mL; MIC (Escherichia coli w122; Escherichia coli, W122): 512 µg/mL (≈ 1920 µM); MIC (Escherichia coli w123; Escherichia coli, W123): 512 µg/mL (≈ 1920 µM)
CN(C)[C@@H]1C(O)=C(C(N)=O)C(=O)[C@@]2(O)C(O)=C3C(=O)c4c(O)cccc4[C@@](C)(O)[C@H]3C[C@@H]12 [Tetracycline]		R		R		R	32 (≈ 72 µM)	R	32 (≈ 72 µM)	R	64 (≈ 144 µM)	R	32 (≈ 72 µM)	R	32 (≈ 72 µM)	R	32 (≈ 72 µM)	R	
COc1cccc(OC)c1C(=O)N[C@@H]1C(=O)N2[C@@H]1SC(C)(C)[C@@H]2C(=O)O [methicillin]							128 (≈ 336 µM)	R	32 (≈ 84.1 µM)	R	64 (≈ 168 µM)	R	64 (≈ 168 µM)	R	128 (≈ 336 µM)	R	128 (≈ 336 µM)	R	
PolymixinB		S		R		S		S		S		S		S		S			MIC (Escherichia coli w124; [9]): 0.5 µg/mL; MIC (Escherichia coli w136; [9]): 8 µg/mL; MIC (Escherichia coli QY; [9]): 1 µg/mL; MIC (Escherichia coli S1N1; [9]): 0.5 µg/mL; MIC (Shigella flexneri QY1; [9]): 0.5 µg/mL; MIC (Escherichia coli SN5; [9]): 0.5 µg/mL; MIC (Escherichia coli w122; [9]): 0.5 µg/mL; MIC (Escherichia coli w123; [9]): 0.5 µg/mL
